We go through eleven compounds from US12448389B2, “BRM targeting compounds and associated methods of use” (Prelude Therapeutics Incorporated, priority 2020, dated 2025).

One test concerns the target T1, SMARCA4-HiBiT (Homo sapiens, UniProt P51532).
T1 construct: SMARCA4-HiBiT knock-in Hela monoclonal cell (CS3023226); host or cells: HeLa monoclonal knock-in line (CRISPR HiBiT knock-in at the endogenous locus, heterozygous)
Description: SMARCA4 HiBiT degradation assay in HeLa cells. In kind it is cell-based. The settings on record: 18 hours incubation; for DC50: read-out: HeLa-HiBit-SM4 DC50; for Dmax: HeLa, read-out: HeLa-HiBit-SM4 Dmax (%). In outline: (§1)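 HeLa monoclonal lines with heterozygous HiBiT knock-in were seeded at 2500 cells/well in EMEM with 10% FBS and treated with compound for 18 h at 37 °C. Remaining tagged protein was measured by Nano-Glo HiBiT lytic luminescence after 30–60 min at RT, and values came from curve fitting.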

The target of the next test is T2, SMARCA2-HiBiT (Homo sapiens, UniProt P51531).
T2 construct: SMARCA2-HiBiT knock-in Hela monoclonal cell (CS302366); host or cells: HeLa monoclonal knock-in line (CRISPR HiBiT knock-in at the endogenous locus, heterozygous)
T2 sequence (P51531 whole entry): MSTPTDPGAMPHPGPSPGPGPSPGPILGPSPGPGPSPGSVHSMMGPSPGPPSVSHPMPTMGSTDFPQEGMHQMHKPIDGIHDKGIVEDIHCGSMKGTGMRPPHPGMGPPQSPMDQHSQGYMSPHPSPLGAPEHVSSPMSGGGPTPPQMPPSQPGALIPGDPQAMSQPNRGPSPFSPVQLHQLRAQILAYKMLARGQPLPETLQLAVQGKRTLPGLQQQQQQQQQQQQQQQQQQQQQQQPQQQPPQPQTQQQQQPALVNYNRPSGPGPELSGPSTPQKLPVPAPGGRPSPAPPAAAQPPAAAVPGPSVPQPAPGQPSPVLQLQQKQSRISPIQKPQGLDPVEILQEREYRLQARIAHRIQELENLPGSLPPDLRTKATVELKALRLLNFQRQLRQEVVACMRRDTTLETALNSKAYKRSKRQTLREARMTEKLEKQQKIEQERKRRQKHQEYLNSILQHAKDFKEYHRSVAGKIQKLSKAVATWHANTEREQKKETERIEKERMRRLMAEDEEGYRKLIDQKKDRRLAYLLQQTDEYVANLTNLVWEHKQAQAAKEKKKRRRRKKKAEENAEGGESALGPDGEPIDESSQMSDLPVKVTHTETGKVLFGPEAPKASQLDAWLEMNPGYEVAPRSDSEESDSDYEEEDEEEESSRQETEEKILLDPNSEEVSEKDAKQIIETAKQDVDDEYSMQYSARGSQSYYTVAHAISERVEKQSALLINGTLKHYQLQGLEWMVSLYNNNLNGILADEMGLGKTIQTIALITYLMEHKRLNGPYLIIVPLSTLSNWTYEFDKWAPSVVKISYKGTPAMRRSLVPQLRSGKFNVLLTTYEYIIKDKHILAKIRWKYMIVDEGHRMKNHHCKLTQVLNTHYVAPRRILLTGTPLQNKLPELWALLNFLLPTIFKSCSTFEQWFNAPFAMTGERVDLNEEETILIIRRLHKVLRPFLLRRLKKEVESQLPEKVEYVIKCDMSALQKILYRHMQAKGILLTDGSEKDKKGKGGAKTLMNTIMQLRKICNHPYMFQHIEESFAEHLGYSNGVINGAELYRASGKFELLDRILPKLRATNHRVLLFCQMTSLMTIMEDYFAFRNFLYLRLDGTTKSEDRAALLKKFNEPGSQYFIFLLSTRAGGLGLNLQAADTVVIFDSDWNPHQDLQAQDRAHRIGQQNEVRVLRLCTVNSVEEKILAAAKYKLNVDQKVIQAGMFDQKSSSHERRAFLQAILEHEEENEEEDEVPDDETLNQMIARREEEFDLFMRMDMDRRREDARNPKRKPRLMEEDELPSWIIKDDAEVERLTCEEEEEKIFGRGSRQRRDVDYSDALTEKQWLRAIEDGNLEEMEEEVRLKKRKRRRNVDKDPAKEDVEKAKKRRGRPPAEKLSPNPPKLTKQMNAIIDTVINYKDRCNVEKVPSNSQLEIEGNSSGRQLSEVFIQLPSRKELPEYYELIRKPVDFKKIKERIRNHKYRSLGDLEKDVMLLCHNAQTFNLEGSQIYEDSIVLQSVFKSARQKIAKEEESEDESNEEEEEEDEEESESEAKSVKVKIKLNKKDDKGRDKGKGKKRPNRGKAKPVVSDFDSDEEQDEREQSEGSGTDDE
Description: SMARCA2 HiBiT degradation assay in HeLa cells. It counts as cell-based. The settings on record: 18 hours incubation; for DC50: read-out: HeLa_HiBit-SM2 DC50; for Dmax: HeLa, read-out: HeLa-HiBit-SM2 Dmax (%). The procedure, abridged:
as §1
For orientation: HiBiT is a short tag that completes a luciferase, so light tracks the accessible tagged protein.

T1 sequence (P51532 whole entry): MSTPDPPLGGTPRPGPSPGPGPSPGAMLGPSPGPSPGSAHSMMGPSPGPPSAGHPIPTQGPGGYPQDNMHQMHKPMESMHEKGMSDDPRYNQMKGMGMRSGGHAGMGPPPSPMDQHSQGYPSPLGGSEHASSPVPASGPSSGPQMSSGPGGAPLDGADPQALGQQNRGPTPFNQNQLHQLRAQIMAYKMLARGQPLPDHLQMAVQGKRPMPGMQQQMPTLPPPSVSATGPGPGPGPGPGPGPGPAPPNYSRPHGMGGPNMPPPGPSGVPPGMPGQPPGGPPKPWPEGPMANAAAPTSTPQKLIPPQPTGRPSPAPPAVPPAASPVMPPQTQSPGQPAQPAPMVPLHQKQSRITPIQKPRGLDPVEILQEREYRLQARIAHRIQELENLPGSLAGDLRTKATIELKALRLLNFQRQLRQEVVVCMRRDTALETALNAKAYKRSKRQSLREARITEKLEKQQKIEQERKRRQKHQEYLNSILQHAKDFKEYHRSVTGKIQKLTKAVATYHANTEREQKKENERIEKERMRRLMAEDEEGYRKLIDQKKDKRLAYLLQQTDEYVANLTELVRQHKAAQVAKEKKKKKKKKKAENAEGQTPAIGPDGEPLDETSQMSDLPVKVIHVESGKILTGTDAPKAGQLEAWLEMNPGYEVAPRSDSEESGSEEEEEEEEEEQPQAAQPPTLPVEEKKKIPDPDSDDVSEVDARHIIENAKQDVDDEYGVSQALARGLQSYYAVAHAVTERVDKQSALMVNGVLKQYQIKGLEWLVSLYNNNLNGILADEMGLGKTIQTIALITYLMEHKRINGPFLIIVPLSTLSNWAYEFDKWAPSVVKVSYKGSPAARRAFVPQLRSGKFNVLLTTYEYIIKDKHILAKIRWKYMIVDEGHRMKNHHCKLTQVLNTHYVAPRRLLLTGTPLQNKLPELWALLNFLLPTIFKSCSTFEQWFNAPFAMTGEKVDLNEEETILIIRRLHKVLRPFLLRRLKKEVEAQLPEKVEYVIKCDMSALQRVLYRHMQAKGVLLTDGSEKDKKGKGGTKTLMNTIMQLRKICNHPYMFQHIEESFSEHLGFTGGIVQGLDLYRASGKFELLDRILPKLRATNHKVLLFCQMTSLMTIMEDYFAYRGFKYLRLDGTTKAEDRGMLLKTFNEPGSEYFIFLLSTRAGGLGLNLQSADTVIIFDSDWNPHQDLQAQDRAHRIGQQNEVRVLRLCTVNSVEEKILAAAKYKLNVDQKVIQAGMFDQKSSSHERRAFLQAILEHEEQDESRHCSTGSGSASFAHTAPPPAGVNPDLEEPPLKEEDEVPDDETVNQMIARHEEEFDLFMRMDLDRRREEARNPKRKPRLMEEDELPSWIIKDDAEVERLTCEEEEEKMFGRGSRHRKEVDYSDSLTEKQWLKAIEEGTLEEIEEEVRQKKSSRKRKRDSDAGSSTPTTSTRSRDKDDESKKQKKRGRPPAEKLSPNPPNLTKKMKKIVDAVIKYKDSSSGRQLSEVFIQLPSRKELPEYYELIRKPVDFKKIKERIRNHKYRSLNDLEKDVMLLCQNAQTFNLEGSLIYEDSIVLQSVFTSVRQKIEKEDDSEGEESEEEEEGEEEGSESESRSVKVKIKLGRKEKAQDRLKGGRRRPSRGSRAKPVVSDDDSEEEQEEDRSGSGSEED

Turning to `CN(CCNc1ccc2c(c1)C(=O)N(C1CCC(=O)NC1=O)C2=O)C1CCC(N2CCN3c4cc(-c5ccccc5O)nnc4NC[C@H]3C2)CC1` (stereo partly drawn) [Example 220, 2-(2,6-dioxopiperidin-3-yl)-5-((2-((4-((S)-2-(2-hydroxyphenyl)-5,6,6a,7,9,10-hexahydro-8H-pyrazino[1′,2′:4,5]pyrazino[2,3-c]pyridazin-8-yl)cyclohexyl)(methyl)amino)ethyl)amino) isoindoline-1,3-dione], the DC50 on SMARCA4-HiBiT and at SMARCA2-HiBiT was under 10 nM in each case. The Dmax on SMARCA4-HiBiT and on SMARCA2-HiBiT was 75 to 85% in each case.

With `O=C1CCC(N2C(=O)c3ccc(N4CCN(C5CCN(CCN6CCN7c8cc(-c9ccccc9O)nnc8NC[C@H]7C6)C5)CC4)cc3C2=O)C(=O)N1` (stereo partly drawn) [Example 221, 2-(2,6-dioxopiperidin-3-yl)-5-(4-(1-(2-((S)-2-(2-hydroxyphenyl)-5,6,6a,7,9,10-hexahydro-8H-pyrazino[1′,2′:4,5]pyrazino[2,3-c]pyridazin-8-yl)ethyl)pyrrolidin-3-yl)piperazin-1-yl) isoindoline-1,3-dione], at SMARCA4-HiBiT, the DC50 (as a rule, the concentration at which degradation of the target reaches its halfway point) was under 10 nM and the Dmax (as a rule, the largest share of the target that was removed) fell in the range of 50 to 75%. At SMARCA2-HiBiT, the DC50 was under 10 nM and the Dmax fell in the range of 75 to 85%.

Turning to `CN(CCN1CCC(C(=O)N2CCN3c4cc(-c5ccccc5O)nnc4NC[C@H]3C2)CC1)c1ccc2c(c1)C(=O)N(C1CCC(=O)NC1=O)C2=O` (stereo partly drawn) [Example 222, 2-(2,6-dioxopiperidin-3-yl)-5-((2-(4-((S)-2-(2-hydroxyphenyl)-6,6a,7,8,9,10-hexahydro-5H-pyrazino[1′,2′:4,5]pyrazino[2,3-c]pyridazine-8-carbonyl)piperidin-1-yl)ethyl)(methyl)amino) isoindoline-1,3-dione], at SMARCA4-HiBiT, the DC50 lay within 100 to 1000 nM and the maximal degradation (Dmax) is at most 50%. At SMARCA2-HiBiT, the DC50 was under 10 nM and the Dmax was 50 to 75%.

For the compound `O=C1CCC(N2C(=O)c3ccc(N4CCN(C(=O)OCCN5CCC(N6CCN7c8cc(-c9ccccc9O)nnc8NC[C@H]7C6)CC5)CC4)cc3C2=O)C(=O)N1` (stereo partly drawn) [Example 223, 2-(4-((S)-2-(2-hydroxyphenyl)-5,6,6a,7,9,10-hexahydro-8H-pyrazino[1′,2′:4,5]pyrazino[2,3-c]pyridazin-8-yl)piperidin-1-yl)ethyl 4-(2-(2,6-dioxopiperidin-3-yl)-1,3-dioxoisoindolin-5-yl)piperazine-1-carboxylate], the DC50 on SMARCA4-HiBiT and at SMARCA2-HiBiT was under 10 nM in each case. For the same compound, the Dmax on SMARCA4-HiBiT and on SMARCA2-HiBiT was 75 to 85% in each case.

Consider `O=C1CCC(N2C(=O)c3ccc(N4CCC(CCN5CCC(CN6CCN7c8cc(-c9ccccc9O)nnc8NC[C@H]7C6)CC5)CC4)cc3C2=O)C(=O)N1` (stereo partly drawn) [Example 224, 2-(2,6-dioxopiperidin-3-yl)-5-(4-(2-(4-(((S)-2-(2-hydroxyphenyl)-5,6,6a,7,9,10-hexahydro-8H-pyrazino[1′,2′:4,5]pyrazino[2,3-c]pyridazin-8-yl)methyl)piperidin-1-yl)ethyl)piperidin-1-yl)isoindoline-1,3-dione], for which, on SMARCA4-HiBiT, the DC50 was under 10 nM and the Dmax is 75 to 85%. In addition, on SMARCA2-HiBiT, the DC50 was under 10 nM and the Dmax was in the range of 75 to 85%.

`O=C1CCC(N2C(=O)c3ccc(N4CCC(CN5CCC(CN6CCN7c8cc(-c9ccccc9O)nnc8NC[C@H]7C6)CC5)C4)cc3C2=O)C(=O)N1` (stereo partly drawn) [Example 225, 2-(2,6-dioxopiperidin-3-yl)-5-(3-((4-(((S)-2-(2-hydroxyphenyl)-5,6,6a,7,9,10-hexahydro-8H-pyrazino[1′,2′:4,5]pyrazino[2,3-c]pyridazin-8-yl)methyl)piperidin-1-yl)methyl)pyrrolidin-1-yl)isoindoline-1,3-dione]: on SMARCA4-HiBiT, the DC50 is under 10 nM and the Dmax was over 85%. Besides, at SMARCA2-HiBiT, the DC50 was under 10 nM and the Dmax was over 85%.

For the compound `CC1(CN2CCC(CN3CCN4c5cc(-c6ccccc6O)nnc5NC[C@H]4C3)CC2)CCN(c2ccc3c(c2)C(=O)N(C2CCC(=O)NC2=O)C3=O)CC1` (stereo partly drawn) [Example 226, 2-(2,6-dioxopiperidin-3-yl)-5-(4-((4-(((S)-2-(2-hydroxyphenyl)-5,6,6a,7,9,10-hexahydro-8H-pyrazino[1′,2′:4,5]pyrazino[2,3-c]pyridazin-8-yl)methyl)piperidin-1-yl)methyl)-4-methylpiperidin-1-yl)isoindoline-1,3-dione], at SMARCA4-HiBiT, the DC50 is under 10 nM and the Dmax is 75 to 85%. Further, on SMARCA2-HiBiT, the DC50 was under 10 nM and the Dmax is over 85%.

For `CN(CCCCN1CCC(CN2CCN3c4cc(-c5ccccc5O)nnc4NC[C@H]3C2)CC1)c1ccc2c(c1)C(=O)N(C1CCC(=O)NC1=O)C2=O` (stereo partly drawn) [Example 227, 2-(2,6-dioxopiperidin-3-yl)-5-((4-(4-(((S)-2-(2-hydroxyphenyl)-5,6,6a,7,9,10-hexahydro-8H-pyrazino[1′,2′:4,5]pyrazino[2,3-c]pyridazin-8-yl)methyl)piperidin-1-yl)butyl)(methyl)amino)isoindoline-1,3-dione], on SMARCA4-HiBiT, the DC50 lay within 10 to 100 nM and the Dmax was in the range of 50 to 75%. For the same compound, on SMARCA2-HiBiT, the DC50 is under 10 nM and the Dmax lay within 50 to 75%.

For the compound `O=C1CCC(N2C(=O)c3ccc(N4CCC(CN5CCC(CCCN6CCN7c8cc(-c9ccccc9O)nnc8NC[C@H]7C6)CC5)CC4)cc3C2=O)C(=O)N1` (stereo partly drawn) [Example 228, 2-(2,6-dioxopiperidin-3-yl)-5-(4-((4-(3-((S)-2-(2-hydroxyphenyl)-5,6,6a,7,9,10-hexahydro-8H-pyrazino[1′,2′:4,5]pyrazino[2,3-c]pyridazin-8-yl)propyl)piperidin-1-yl)methyl)piperidin-1-yl)isoindoline-1,3-dione], on SMARCA4-HiBiT, the DC50 was under 10 nM and the Dmax is over 85%. Moreover, at SMARCA2-HiBiT, the DC50 was under 10 nM and the Dmax was over 85%.

As for `O=C1CCC(N2C(=O)c3ccc(N4CCC(CN5CCC(CCN6CCN7c8cc(-c9ccccc9O)nnc8NC[C@H]7C6)CC5)CC4)cc3C2=O)C(=O)N1` (stereo partly drawn) [Example 229, 2-(2,6-dioxopiperidin-3-yl)-5-(4-((4-(2-((S)-2-(2-hydroxyphenyl)-5,6,6a,7,9,10-hexahydro-8H-pyrazino[1′,2′:4,5]pyrazino[2,3-c]pyridazin-8-yl)ethyl)piperidin-1-yl)methyl)piperidin-1-yl)isoindoline-1,3-dione], the DC50 at SMARCA4-HiBiT and at SMARCA2-HiBiT was under 10 nM in each case. Besides, the Dmax on SMARCA4-HiBiT and at SMARCA2-HiBiT was over 85% in each case.

With `O=C1CCC(N2Cc3cc(N4CC(CN5CCC(CN6CCN7c8cc(-c9ccccc9O)nnc8NC[C@H]7C6)CC5)C4)ccc3C2=O)C(=O)N1` (stereo partly drawn) [Example 230, 3-(5-(3-((4-(((S)-2-(2-hydroxyphenyl)-5,6,6a,7,9,10-hexahydro-8H-pyrazino[1′,2′:4,5]pyrazino[2,3-c]pyridazin-8-yl)methyl)piperidin-1-yl)methyl)azetidin-1-yl)-1-oxoisoindolin-2-yl)piperidine-2,6-dione], at SMARCA4-HiBiT, the DC50 is under 10 nM and the Dmax is over 85%. At SMARCA2-HiBiT, the DC50 is under 10 nM and the Dmax was over 85%.
